{
  "source": "patent US9586896B2",
  "about": "“Nitroxyl donors with improved therapeutic index” (Cardioxyl Pharmaceuticals, Inc., priority 2013, dated 2017)",
  "assay": "Exploratory studies on the cause of the side effects of CXL-1020",
  "conditions": "in vivo",
  "procedure": "Exploratory studies were continued to determine the cause of the undesirable side effects of CXL-1020 at the higher, but still clinically desirable, doses. […] Studies were conducted with alternative nitroxyl donors that were structurally unrelated to CXL-1020 but had similar half-lives for nitroxyl donation (half-lives of about 2 minutes). For these donors, nitroxyl was at its highest intravascular concentration at the catheter tip and immediately downstream in the vein into which the catheter had been inserted. In all instances, local vascular side effects at the catheter tip were observed.",
  "data": [
    {"molecule": "CS(=O)(=O)c1ccccc1S(=O)O", "note": "[byproduct of CXL-1020]", "values": [
      {"measurement": "side effect studies with the byproduct", "result": "negative"}
    ]}
  ]
}
